The conditions of this data set: 101 kPa, Liquid, Sing-around technique in a fixed-path interferometer.

Molecules are shown by their SMILES. ± gives the expanded uncertainty stated by the source.

As a reminder, the speed of sound is how fast a sound wave travels through the sample.

With `O` [water], the speed of sound (313.15 K) is 1529.2 ± 0.77 m/s and the speed of sound (318.15 K) stood at 1536.8 ± 0.78 m/s.
